Assay results taken from patent US20080081796A1, “TREATMENT OF MUCOSITIS” (priority 2002, published 2008).

Test system: oral mucositis induced by acute radiation
Experiment: oral mucositis induced by acute radiation in an animal model (Animal Study and Animal Study II)
Format: in vivo, Golden Syrian hamsters
Details: for severity of oral mucositis (average oral mucositis scores, FIG. 1): topical TID 0.25 ml to left cheek pouch, 40 Gy radiation on day 0, versus water control
Excerpt: The objective of this study was to evaluate the effect of the nucleoside derivative, 5′-adenosine-diphosphate ribose, when administered topically, on the frequency, severity and duration of oral mucositis induced by acute radiation in an animal model.
The animals in the study ([…] Golden Syrian hamsters, Charles River Lab., ages 5-6 weeks, approximately 90 g average body weight) were randomly and prospectively divided into three groups of eight animals each. The particular test material to be applied to the animal mucosa during the study essentially defined each group. The test materials were water (Group 1 control), ADP-ribose 100 μg/ml in water (Group 2) and ADP-ribose 500 μg/ml in water (Group 3).
Mucositis was induced in the animals with a standardized acute radiation protocol. A single dose of radiation (40 Gy/dose) was administered to each animal on day 0. Irradiation targeted the left buccal pouch mucosa at a rate of 121.5 cGy/minute. The left buccal pouch was everted, fixed and isolated using a lead shield. Prior to and following radiation on day 0, each animal was dosed with their respective test materials in the manner described below. Also, immediately prior to radiation, the buccal mucosa was everted and any excess test material solution was wiped away using a clean tissue or cotton swab.
The respective test materials were then applied topically TID to the irradiated mucosa of each animal on day 1 to day 20 of the study. To accomplish this, a tuberculin syringe without a needle, containing 0.25 ml of the test material, was inserted into the base of the left cheek pouch and the test material deposited accordingly. This was done TID (first between 8-9:00 am; second between […] and 1:00 pm; third between 4-6:00 pm). Any developing mucositis was evaluated and scored on alternate days from day 6-28. Each animal was also weighed and its survival recorded on day 1 to day 28.
During the study, each animal was tested for mucositis scores, weight change and survival. For the evaluation of mucositis, the animals were anesthetized with inhalation anesthetics, and the left pouch everted. The developing mucositis was scored visually by comparison to a validated photographic scale, ranging from 0 for normal, to 5 for severe ulceration (clinical scoring). In descriptive terms, this scale is defined in the following table:
A mucositis score of 1-2 represents a mild stage of the disease. A score of 3-5 indicates moderate to severe mucositis. Following visual scoring, a photograph was taken of each animal's mucosa using a standardized technique. At the conclusion of the experiment, all film was developed and the photographs randomly numbered. At least two independent trained observers graded the photographs in blinded fashion using the above-described scale (blinded scoring). Results of the mucositis scores are graphically illustrated in FIG. 1.
The animal study described in Example 2 was then repeated with an identical protocol but with modified ADP-ribose doses. The groups in this study were treated with water (control), ADP-ribose at 100 μg/ml in water (Compound F), ADP-ribose at 45 μg/ml in water (Compound G), and ADP-ribose at 15 μg/ml in water (Compound H). […] Animals in the control group had mucositis scores ≧3 for approximately 10 days, whereas the ADP-ribose group had scores of approximately 3 for only 4 days.

## 5′-adenosine-diphosphate ribose [ADP-ribose]
Example 3, ADP-ribose at 100 μg/ml in water (Compound D group)
  severity of oral mucositis (average oral mucositis scores, FIG. 1): decreased the severity of oral mucositis
Example 3, ADP-ribose at 500 μg/ml (Compound E group)
  severity of oral mucositis (average oral mucositis scores, FIG. 1): decreased the severity of oral mucositis
Example 3, FIG. 1, comparison of the two ADP-ribose concentrations
  effect on oral mucositis at 100 μg/ml compared with 500 μg/ml: superior to that of ADP-ribose at 500 μg/ml
Example 4, Animal Study II, FIG. 2, ADP-ribose at a 45 μg/ml dose (Compound G)
  healing of oral mucositis: maximum healing of oral mucositis that was statistically significant
Example 4, Animal Study II, FIG. 2, ADP-ribose group, control group had scores ≧3 for approximately 10 days
  time with mucositis scores of approximately 3: 4 days
Example 4, Animal Study II, FIG. 2, ADP-ribose treatment groups (100, 45, 15 μg/ml in water)
  healing of ulcers associated with mucositis (mucositis score ≧3) relative to the control: healed faster
